In this test the test system is CEM cells HIV-1 protection, formazan growth assay. The experiment in a line: NCI AIDS Antiviral Assay. The note with it: for IC50: measured here: growth of uninfected CEM cells. In short, it runs like this:
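Protection of CEM cells against HIV-1 was scored from cell growth (soluble formazan) across five concentrations, with parallel uninfected cells. Lack of protection may reflect toxicity.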

For orientation: EC50 means the concentration needed to bring the measured effect to its halfway point. Usually IC50 stands for the concentration at which inhibition is half-maximal.

Active and inactive are the calls of the source.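 The calls were made as follows: active = compounds giving half or more protection of infected cells from virus-caused growth loss, again on retest; inactive = the rest.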

`COc1c(OC(C)=O)c(OC(C)=O)cc2c1-c1ccc(OC)c(=O)cc1C(NC(C)=O)CC2` (stereo not drawn): the EC50 is above 0.2 µM and the IC50 is 0.0115 µM.

As to `O=NNc1ccc(S(=O)(=O)c2ccc(NN=O)cc2)cc1`, the result was inactive.

`CO[C@@]12CC(=O)/C(=C(O)\C=C\c3ccccc3)C(=O)[C@]1(O)Cc1ccccc1O2`: the EC50 was above 316 µM and the IC50 turned out to be 42.7 µM.

For `N#Cc1nc(NC(=O)c2ccccc2)sc1N`, the EC50 was above 200 µM and the 50% inhibitory concentration (IC50) turned out to be 15.1 µM.

For `CN1CCC(=O)/C(=C/c2ccccc2)C1`, the outcome was inactive.

`O=C(Nc1ccc([N+](=O)[O-])cc1)OCC(COc1ccccc1)OC(=O)Nc1ccc([N+](=O)[O-])cc1` (stereo not drawn): the EC50 is above 200 µM and the concentration for half-maximal inhibition (IC50) came out at 7.76 µM.

Regarding `CC(C)=NOC(=O)OC[C@H]1O[C@@H](n2cnc3c(N)ncnc32)C(O)C1O` (stereo partly drawn), the EC50 is above 200 µM and the concentration for half-maximal inhibition (IC50) is above 200 µM.

In the case of `COc1cc2c(cc1OC)-c1cc3ccccc3c(=O)n1CC2`, the EC50 is above 200 µM and the IC50 was 28.2 µM.

With `O=C(CC1(O)C(=O)Nc2c(Cl)cc(Cl)cc21)c1ccc(Cl)cc1` (stereo not drawn), the result was inactive.

`COc1ccc(N=Cc2ccc(N(CCC#N)S(=O)(=O)c3ccccc3)cc2)cc1`: the EC50 is above 162 µM and the IC50 is above 162 µM.

In the case of `CN(C)c1ccc(C(Cc2ccccc2)C2NC(=S)NC2=O)cc1` (stereo not drawn), the EC50 is above 200 µM and the IC50 was found to be 15.5 µM.

Regarding `O=S1(=O)C=Cc2ccccc2CC1`, the EC50 was above 1290 µM and the 50% inhibitory concentration (IC50) turned out to be 741 µM.

For the molecule `O=S(=O)(ON=C1C=CC(=NOS(=O)(=O)c2ccccc2)C=C1)c1ccccc1`, the EC50 was above 200 µM and the IC50 turned out to be 1.02 µM.

For `O=[N+]([O-])c1ccccc1C1SCc2nc3ccccc3n21` (stereo not drawn), the EC50 is above 38.9 µM and the IC50 was found to be 33.9 µM.

Take `CCN(CC)C(=O)Cc1[nH][nH]c(=O)c1C(=O)N(CC)CC`: the EC50 was above 851 µM and the IC50 is above 851 µM.

`C#CCOCn1cc(C)c(=O)[nH]c1=O`: the EC50 was above 200 µM and the IC50 was above 200 µM.

As for `COc1ccc(-c2c(C(C)=O)c(-c3ccccc3)n(C3OC(CO)C(O)C(O)C3O)c(=S)c2C#N)cc1` (stereo not drawn), the EC50 is above 200 µM and the IC50 was above 200 µM.

Regarding `Cc1ccc(C(=O)O/N=C2/CCCCC2CN(C)C)cc1` (stereo not drawn), the result was inactive.

As for `O=c1n(CCCCn2c(=O)n(CC3CS3)c3ccccc32)c2ccccc2n1CC1CS1` (stereo not drawn), the EC50 is above 28.8 µM and the half-inhibitory concentration (IC50) turned out to be 9.12 µM.

With `Cc1ccc2c(c1)CC1(C2)Cc2ccc(C)cc2C1=O` (stereo not drawn), the EC50 was above 200 µM and the IC50 came to 23.4 µM.

Turning to `CCOc1cc2c(cc1O)CC[C@@H]1[C@@H]2CC[C@]2(C)C(N)CC[C@@H]12` (stereo partly drawn), the EC50 is above 200 µM and the half-inhibitory concentration (IC50) is 1.2 µM.

For the molecule `COC(=O)[C@H](Cc1ccccc1)NC(=O)N1CCCN(C(=O)N[C@@H](Cc2ccccc2)C(=O)OC)CCCN(C(=O)N[C@@H](Cc2ccccc2)C(=O)OC)CCC1`, the EC50 is above 100 µM and the IC50 was 27.5 µM.

Regarding `CC1=NNC(=S)NCCCN2CCN(CCCNC(=S)NN=C(C)C=NNC(=S)NCCCN3CCN(CCCNC(=S)NN=C1)CC3)CC2`, the EC50 is above 123 µM and the half-inhibitory concentration (IC50) is above 123 µM.

For the molecule `CC(Oc1ccc2c(-c3ccccc3)cc(=O)oc2c1)C(=O)O` (stereo not drawn), the result was inactive.

With `O=C(/C=C/c1ccc(O)c(O)c1)c1cc(O)cc(O)c1`, the EC50 was above 200 µM and the half-maximal inhibitory concentration (IC50) is 15.1 µM.

On to `CN(C)c1ccc(/C=C(\C#N)c2cccc(F)c2)cc1`, for which the EC50 is above 2 µM and the IC50 stood at 0.141 µM.

Take `CN1CC=C(C#CC(C)(C)O)CC1`: the EC50 was above 200 µM and the half-maximal inhibitory concentration (IC50) was above 200 µM.

Take `Cc1nc(NS(=O)(=O)c2ccc(NC(=O)c3ccccc3SC(=O)CCCC[n+]3ccccc3)cc2)oc1C`: the EC50 was 16.6 µM and the IC50 was found to be 52.5 µM.

Turning to `CCN(CC)CCOC(=O)c1c(C)oc2cc3c(C(=O)OCCN(CC)CC)c(C)oc3cc12`, the EC50 is above 200 µM and the IC50 worked out at 6.03 µM.

With `C(=N\Nc1ccccn1)/c1ccccn1.C(=N\Nc1ccccn1)/c1ccccn1.[Cl-].[Fe+3]`, the EC50 is above 200 µM and the IC50 amounted to 117 µM.

For `Cc1c2ccccc2nc(CSC#N)[n+]1[O-]`, the EC50 is above 200 µM and the IC50 was 36.3 µM.

For `NC(=O)N/N=C(\Cc1cc(=O)oc2cc(O)ccc12)C(=O)Nc1ccccc1C(N)=O`, the EC50 was above 32.4 µM and the IC50 was above 32.4 µM.

As for `O=C(CS)NCCNC(=O)CS`, the EC50 was above 25.1 µM and the concentration for half-maximal inhibition (IC50) was above 25.1 µM.

For the molecule `O=c1[nH]c(=O)n(C2CC(O)C(CO)O2)cc1C#Cc1c(F)c(F)c(F)c(F)c1F` (stereo not drawn), the EC50 was above 603 µM and the half-inhibitory concentration (IC50) came out at 110 µM.

With `O=c1ccn(CC2COC(CP(=O)(O)O)O2)c(=O)[nH]1` (stereo not drawn), the EC50 is above 200 µM and the half-inhibitory concentration (IC50) was above 200 µM.

In the case of `CCSC1=N/C(=C\c2ccco2)C(Cl)=N1`, the EC50 was above 100 µM and the IC50 is above 100 µM.

With `Cc1cc2c(C(C)C)c(O)c(O)c(/C=N\O)c2c(O)c1-c1c(C)cc2c(C(C)C)c(O)c(O)c(/C=N/O)c2c1O`, the EC50 was above 200 µM and the IC50 worked out at 10 µM.

For `Oc1nc2nc[nH]n2c1N=Nc1ccccc1`, the EC50 was above 200 µM and the 50% inhibitory concentration (IC50) is above 200 µM.

Consider `CCOC(=O)C1=CCC2c3[nH]c4ccccc4c3CCN2C1=O` (stereo not drawn), for which the EC50 was above 16.2 µM and the IC50 is 9.12 µM.

In the case of `C=C(C)P(=O)(OC(C)CCl)OC(C)CCl` (stereo not drawn), the EC50 was above 200 µM and the half-inhibitory concentration (IC50) was above 200 µM.

For the molecule `N/C(=N\N=C\c1cccc2ccccc12)N/N=C/c1cccc2ccccc12`, the EC50 is above 200 µM and the IC50 is 9.12 µM.

As for `Nc1ncnc2c1ncn2C1OC2CSCCC2(O)C1O` (stereo not drawn), the EC50 was above 200 µM and the IC50 was above 200 µM.

As to `Nc1nc(N)c(N=O)c(N)n1`, the EC50 is above 200 µM and the IC50 is 170 µM.

Turning to `CC(=O)OCC1OC(n2c(=O)[nH]c(=O)c3sccc32)C(Br)C1OC(C)=O` (stereo not drawn), the EC50 was above 200 µM and the IC50 was above 200 µM.

For the molecule `COc1ccccc1NC(=O)CC(=O)NNCC(=O)Nc1nnc(-c2ccccc2)o1`, the EC50 is above 85.1 µM and the IC50 is above 85.1 µM.

Take `COc1ccc2c(c1)CCN1C2CCN2C(=O)CCC21` (stereo not drawn): the EC50 is above 912 µM and the IC50 was above 912 µM.

Take `CN/N=C(\C)C(CN1CCCCC1)C(C1=C(O)c2ccccc2OC1)c1ccccc1` (stereo not drawn): the EC50 was above 29.5 µM and the IC50 is above 29.5 µM.

`CCN1C2=NCCN2S(=O)(=O)c2ccccc21`: the EC50 is above 1000 µM and the IC50 came to 479 µM.

With `Cc1ccc(S(=O)(=O)C(C#N)c2nc3ccccc3nc2-n2ccnc2)cc1` (stereo not drawn), the EC50 is above 200 µM and the concentration for half-maximal inhibition (IC50) turned out to be 155 µM.

Turning to `O=C1c2ccccc2C2(O)Nc3cc(O)ccc3C12O` (stereo not drawn), the EC50 is above 933 µM and the concentration for half-maximal inhibition (IC50) was 661 µM.

Regarding `CC(C)=CCC[C@@H](C)C1=C(Nc2ccccc2Cl)C(O)=C(C)C(=O)C1=O`, the EC50 is above 200 µM and the half-maximal inhibitory concentration (IC50) was determined as 1.55 µM.

`COc1ccc(C2=C/C(=C/c3ccc(O)cc3O)C(=O)O2)cc1`: the EC50 was above 200 µM and the IC50 came to 36.3 µM.

For the molecule `C/C(CC(O)(C(F)(F)F)C(F)(F)F)=N\O`, the EC50 is above 200 µM and the 50% inhibitory concentration (IC50) was above 200 µM.

`O=C1OCCN(c2cccc(Cl)c2)CCO1`: the outcome was inactive.

On to `Nc1nc(N)c(-c2ccc(Cl)cc2)c(CCC(=O)Nc2cccc(C(F)(F)F)c2)n1`, for which the EC50 was above 12 µM and the IC50 is above 12 µM.

For the molecule `CN(C)c1cc[n+](-c2nc(/N=C(\[O-])C(F)(F)F)nc3c2ncn3C2CC(O)C(CO)O2)cc1` (stereo not drawn), the EC50 was above 200 µM and the IC50 is above 200 µM.

With `CCCCCCCCCCCCNC(=O)NCC(OCC)OCC`, the EC50 is above 200 µM and the IC50 was 31.6 µM.

As for `Cc1ccc(NC(=O)SCCC(=O)O)cc1NC(=O)SCCC(=O)O`, the outcome was inactive.

Turning to `O=C(c1ccccc1)c1cc2c([nH]c1=O)CCCCC2`, the EC50 was above 200 µM and the IC50 came out at 135 µM.

Take `CCC(=O)C(C)C(=O)C(=O)C(=O)OC` (stereo not drawn): the EC50 is above 13.5 µM and the half-inhibitory concentration (IC50) is above 13.5 µM.

Take `CCCc1cc(=O)oc2c3c(c4c(c12)OC(C)(C)CC4)O[C@@H](C)[C@H](C)[C@H]3O`: the EC50 is above 200 µM, the outcome was inactive and the concentration for half-maximal inhibition (IC50) came to 33.1 µM.

For `CCC(C)[C@H](NC(=O)[C@H](Cc1ccccc1)NC(=O)N(CC)c1ccccc1)C(=O)N[C@@H](CC(C)C)C(=O)OC` (stereo partly drawn), the result was inactive.

In the case of `CN(C)CC1CCCc2ccccc2C1=O` (stereo not drawn), the outcome was inactive.

Take `COc1cc(/C=N\NS(=O)(=O)c2ccc([N+](=O)[O-])cc2)c([N+](=O)[O-])cc1OC`: the EC50 was above 33.1 µM and the IC50 was above 33.1 µM.

As to `O=C(Nc1nc(-c2ccccc2)cs1)OCC(Cl)(Cl)Cl`, the EC50 was above 200 µM and the IC50 turned out to be 4.47 µM.

Turning to `Cc1cc(Cc2cc(C)c(O)c(Br)c2)cc(Br)c1O`, the EC50 was above 200 µM and the IC50 is 1.58 µM.

With `Nc1cnc2c(c1)c(=O)nc1n2CCS1`, the EC50 is above 200 µM and the IC50 came out at 117 µM.

With `CCN(CC)CCC1CCCCN1CC(=O)N1c2ccccc2NC(=O)c2ccccc21` (stereo not drawn), the EC50 is above 200 µM and the 50% inhibitory concentration (IC50) is above 200 µM.

For the molecule `O=C(O)[C@@H]1CSC(c2ccncc2)N1` (stereo partly drawn), the EC50 is above 200 µM and the IC50 is above 200 µM.

As to `COc1cc2c(cc1OC)C(=O)N1CSCC1C(=O)S2` (stereo not drawn), the EC50 was above 50.1 µM and the IC50 is above 50.1 µM.

As for `Cc1ccc(S(=O)(=O)Oc2coc(CO)cc2=O)cc1`, the EC50 is above 200 µM and the 50% inhibitory concentration (IC50) was found to be 12.3 µM.

As to `COc1ccc(C23OCN(c4ccccc4)C2(c2ccc(OC)cc2)c2ccccc2N3C)cc1` (stereo not drawn), the EC50 is above 200 µM and the IC50 is above 200 µM.

`Clc1cc(Cl)cc(C2ON=C(c3ccccc3)N2C23CC4CC(CC(C4)C2)C3)c1` (stereo not drawn): the EC50 is above 200 µM and the IC50 was above 200 µM.

The values are drawn from PubChem BioAssay AID179 (DTP/NCI, 2004).
